# According to patent publication US20240092758A1, “IMIDAZOLO INDAZOLE COMPOUNDS AS JAK INHIBITORS” (Theravance Biopharma R&D IP, LLC, priority 2021, published 2024):
# Experiments:
# [1] = test system: IL-13 induced STAT6 phosphorylation in BEAS-2B human lung epithelial cells; assay: Cellular JAKI potency assay (BEAS-2B); type: cell-based; conditions: Homo sapiens, BEAS-2B, BEAS-2B cells, read-out: BEAS2B pIC50 (converted)
# Procedure, shortened: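 BEAS-2B cells were preincubated with compound (0.1% DMSO) in HBSS/HEPES/BSA for 1 h at 37 °C, then stimulated with IL-13 (80 ng/mL before addition) for 30 min. After lysis, pSTAT6 (Tyr641) was quantified by AlphaLISA SureFire; IC50 from a 4-parameter fit of percent inhibition, reported as pIC50.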
# [2] = molecular target: JAK1 (Homo sapiens (Human), UniProt P23458); assay: Biochemical JAK kinase assay (LanthaScreen), JAK1; conditions: for Ki: read-out: JAK1 pKi (converted)
# Chain of JAK1 (P23458 whole entry): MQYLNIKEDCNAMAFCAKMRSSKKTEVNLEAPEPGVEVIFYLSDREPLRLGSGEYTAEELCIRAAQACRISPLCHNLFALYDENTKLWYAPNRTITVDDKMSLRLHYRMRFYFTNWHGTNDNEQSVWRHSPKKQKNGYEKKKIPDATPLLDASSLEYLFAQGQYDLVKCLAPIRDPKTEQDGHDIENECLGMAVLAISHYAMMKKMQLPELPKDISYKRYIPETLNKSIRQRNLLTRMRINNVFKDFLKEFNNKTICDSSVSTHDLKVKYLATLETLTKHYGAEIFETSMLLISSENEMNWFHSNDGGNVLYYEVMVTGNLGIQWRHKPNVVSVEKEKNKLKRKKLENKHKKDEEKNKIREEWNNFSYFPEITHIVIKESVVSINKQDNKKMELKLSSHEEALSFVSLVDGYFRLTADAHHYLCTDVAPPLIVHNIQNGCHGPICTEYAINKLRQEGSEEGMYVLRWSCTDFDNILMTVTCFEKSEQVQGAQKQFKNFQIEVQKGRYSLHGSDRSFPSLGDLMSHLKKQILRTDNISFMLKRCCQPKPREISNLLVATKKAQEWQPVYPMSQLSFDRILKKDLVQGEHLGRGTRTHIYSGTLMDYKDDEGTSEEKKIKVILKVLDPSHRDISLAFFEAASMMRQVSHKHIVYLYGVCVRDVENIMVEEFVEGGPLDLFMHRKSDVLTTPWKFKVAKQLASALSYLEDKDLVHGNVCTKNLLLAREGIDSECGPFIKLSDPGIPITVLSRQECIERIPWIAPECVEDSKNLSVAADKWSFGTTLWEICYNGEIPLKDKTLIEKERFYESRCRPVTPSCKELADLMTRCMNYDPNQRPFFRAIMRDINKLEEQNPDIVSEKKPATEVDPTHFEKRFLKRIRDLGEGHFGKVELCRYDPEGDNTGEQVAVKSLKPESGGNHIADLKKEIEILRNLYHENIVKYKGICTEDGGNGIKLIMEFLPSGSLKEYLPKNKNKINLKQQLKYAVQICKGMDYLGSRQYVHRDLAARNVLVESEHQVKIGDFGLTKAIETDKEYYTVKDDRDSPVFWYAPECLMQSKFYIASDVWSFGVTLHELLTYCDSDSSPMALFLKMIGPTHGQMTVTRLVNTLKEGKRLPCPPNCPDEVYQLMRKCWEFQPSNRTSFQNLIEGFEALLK
# Procedure, shortened: (§1)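 LanthaScreen format: phospho-STAT1 (pTyr701) detected with 2 nM Tb antibody after 10 mM EDTA quench. Kinase step used Km-level ATP and 200 nM STAT1 peptide, 1 h at ambient after 1 h pre-incubation. Inhibition fitted to IC50, reported as pKi.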
# [3] = molecular target: JAK2 (Homo sapiens (Human), UniProt O60674); assay: Biochemical JAK kinase assay (LanthaScreen), JAK2; conditions: for Ki: read-out: JAK2 pKi (converted)
# Chain of JAK2 (O60674 whole entry): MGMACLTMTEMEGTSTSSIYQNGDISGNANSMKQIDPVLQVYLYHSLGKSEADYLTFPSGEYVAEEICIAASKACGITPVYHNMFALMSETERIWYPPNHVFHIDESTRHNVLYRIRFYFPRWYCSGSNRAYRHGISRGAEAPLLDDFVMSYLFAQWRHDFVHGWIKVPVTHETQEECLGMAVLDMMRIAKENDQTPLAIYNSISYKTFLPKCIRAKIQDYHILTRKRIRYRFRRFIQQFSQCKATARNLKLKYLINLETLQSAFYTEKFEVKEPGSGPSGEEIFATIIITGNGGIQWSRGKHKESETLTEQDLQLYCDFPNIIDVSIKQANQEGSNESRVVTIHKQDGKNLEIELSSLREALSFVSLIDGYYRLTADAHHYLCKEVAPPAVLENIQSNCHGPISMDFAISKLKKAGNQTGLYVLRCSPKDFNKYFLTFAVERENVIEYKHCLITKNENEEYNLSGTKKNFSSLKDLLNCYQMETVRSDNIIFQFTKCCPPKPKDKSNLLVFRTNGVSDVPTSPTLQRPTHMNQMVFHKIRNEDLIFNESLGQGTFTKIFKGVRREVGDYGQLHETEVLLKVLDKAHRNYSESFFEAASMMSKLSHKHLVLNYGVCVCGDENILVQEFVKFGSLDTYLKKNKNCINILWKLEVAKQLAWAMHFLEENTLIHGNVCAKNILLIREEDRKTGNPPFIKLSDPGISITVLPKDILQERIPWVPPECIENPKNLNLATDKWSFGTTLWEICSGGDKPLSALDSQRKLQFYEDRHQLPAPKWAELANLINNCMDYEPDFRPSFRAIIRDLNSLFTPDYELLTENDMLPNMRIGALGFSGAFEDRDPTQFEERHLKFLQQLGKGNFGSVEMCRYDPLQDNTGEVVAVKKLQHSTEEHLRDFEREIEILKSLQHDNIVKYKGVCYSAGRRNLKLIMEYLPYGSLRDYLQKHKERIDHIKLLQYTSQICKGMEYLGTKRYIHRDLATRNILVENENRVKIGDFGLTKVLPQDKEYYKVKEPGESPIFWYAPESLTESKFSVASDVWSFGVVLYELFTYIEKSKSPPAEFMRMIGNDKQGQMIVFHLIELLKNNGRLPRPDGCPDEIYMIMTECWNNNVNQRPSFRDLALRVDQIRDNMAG
# Procedure, shortened: as §1
SMILES,IC50 [1] [nM],JAK1 pKi [2],JAK2 pKi [3],Ki [2] [nM],Ki [3] [nM]
CCc1cc(O)ccc1-c1ccc2c(-c3nc(C4=C[C@@H](CC(=O)N(C)C)NC4)c[nH]3)n[nH]c2c1F [Example 256],31.6 to 100,A (A represents a pKi value ≥10 (Ki≤0.1 nM)),A (A represents a pKi value ≥10 (Ki≤0.1 nM)),,
CCc1cc(O)ccc1-c1ccc2c(-c3nc(C4=CC[C@H](C)N(CCO)C4)c[nH]3)n[nH]c2c1F [Example 257],10 to 31.6,,,0.1 to 1,0.1 to 1
CCc1cc(O)ccc1-c1ccc2c(-c3nc(C4=CC[C@H](C)N(CCCO)C4)c[nH]3)n[nH]c2c1F [Example 258],10 to 31.6,,,0.1 to 1,0.1 to 1
CCc1cc(O)ccc1-c1ccc2c(-c3nc(C4=CC[C@H](C)N(C(C)CO)C4)c[nH]3)n[nH]c2c1F (stereo partly drawn) [Example 259],10 to 31.6,,,0.1 to 1,0.1 to 1
CCc1cc(O)ccc1-c1ccc2c(-c3nc(C4=CC[C@H](C)N(CCC(C)(C)O)C4)c[nH]3)n[nH]c2c1F [Example 260],10 to 31.6,,,0.1 to 1,0.1 to 1
CCc1cc(O)ccc1-c1ccc2c(-c3nc(C4=CC[C@H](C)N(C[C@H](C)CO)C4)c[nH]3)n[nH]c2c1F [Example 261],10 to 31.6,,,0.1 to 1,0.1 to 1
CCc1cc(O)ccc1-c1ccc2c(-c3nc(C4=CC[C@H](C)N(C[C@@H](C)CO)C4)c[nH]3)n[nH]c2c1F [Example 262],10 to 31.6,,,0.1 to 1,0.1 to 1
CCc1cc(O)ccc1-c1ccc2c(-c3nc(C4=C[C@H](CO)N(CCO)C4)c[nH]3)n[nH]c2c1F [Example 263],10 to 31.6,A (A represents a pKi value ≥10 (Ki≤0.1 nM)),A (A represents a pKi value ≥10 (Ki≤0.1 nM)),,
CCc1cc(O)ccc1-c1ccc2c(-c3nc(C4=C[C@H](CO)N(CCCO)C4)c[nH]3)n[nH]c2c1F [Example 264],10 to 31.6,,A (A represents a pKi value ≥10 (Ki≤0.1 nM)),0.1 to 1,
CCc1cc(O)ccc1-c1ccc2c(-c3nc(C4=CC[C@H](C)N([C@H]5C[C@@H](O)C5)C4)c[nH]3)n[nH]c2c1F [Example 265],3.16 to 10,,,0.1 to 1,0.1 to 1
CCc1cc(O)ccc1-c1ccc2c(-c3nc(C4=CC[C@H](C)N(CCCOC)C4)c[nH]3)n[nH]c2c1F [Example 266],10 to 31.6,,,0.1 to 1,0.1 to 1
CCc1cc(O)ccc1-c1ccc2c(-c3nc(C4=CC[C@H](C)N(CC5COC5)C4)c[nH]3)n[nH]c2c1F [Example 267],10 to 31.6,,,0.1 to 1,0.1 to 1
CCc1cc(O)ccc1-c1ccc2c(-c3nc(C4=CC[C@H](C)N(C5CCOCC5)C4)c[nH]3)n[nH]c2c1F [Example 268],10 to 31.6,,,0.1 to 1,0.1 to 1
CCc1cc(O)ccc1-c1ccc2c(-c3nc(C4=CC[C@H](C)N(C[C@H]5COCCN5)C4)c[nH]3)n[nH]c2c1F [Example 269],31.6 to 100,,,0.1 to 1,0.1 to 1
CCc1cc(O)ccc1-c1ccc2c(-c3nc(C4=CC[C@H](C)N(CCN5CCOCC5)C4)c[nH]3)n[nH]c2c1F [Example 270],10 to 31.6,,,0.1 to 1,0.1 to 1
CCc1cc(O)ccc1-c1ccc2c(-c3nc(C4=CC[C@H](C)N(CCN5CCCC5=O)C4)c[nH]3)n[nH]c2c1F [Example 271],10 to 31.6,,,0.1 to 1,0.1 to 1
CCc1cc(O)ccc1-c1ccc2c(-c3nc(C4=C[C@H](CO)N(CCCOC)C4)c[nH]3)n[nH]c2c1F [Example 272],3.16 to 10,A (A represents a pKi value ≥10 (Ki≤0.1 nM)),A (A represents a pKi value ≥10 (Ki≤0.1 nM)),,
CCc1cc(O)ccc1-c1ccc2c(-c3nc(C4=C[C@H](CO)N(C5COC5)C4)c[nH]3)n[nH]c2c1F [Example 273],10 to 31.6,,A (A represents a pKi value ≥10 (Ki≤0.1 nM)),0.1 to 1,
CCc1cc(O)ccc1-c1ccc2c(-c3nc(C4=C[C@H](CO)N(C5CCOCC5)C4)c[nH]3)n[nH]c2c1F [Example 274],10 to 31.6,A (A represents a pKi value ≥10 (Ki≤0.1 nM)),A (A represents a pKi value ≥10 (Ki≤0.1 nM)),,
CCc1cc(O)ccc1-c1ccc2c(-c3nc(C4=CC[C@H](C)N(CC(=O)NC)C4)c[nH]3)n[nH]c2c1F [Example 275],10 to 31.6,,,0.1 to 1,0.1 to 1
CCc1cc(O)ccc1-c1ccc2c(-c3nc(C4=CC[C@H](C)N(CCS(C)(=O)=O)C4)c[nH]3)n[nH]c2c1F [Example 276],31.6 to 100,,,1 to 10,0.1 to 1

SMILES,IC50 [1] [nM],JAK1 pKi [2],JAK2 pKi [3],Ki [2] [nM],Ki [3] [nM]
CCc1cc(O)ccc1-c1ccc2c(-c3nc(C4=CC[C@H](C)N(CCS(=O)(=O)NC)C4)c[nH]3)n[nH]c2c1F [Example 277],31.6 to 100,,,1 to 10,0.1 to 1
CCc1cc(O)ccc1-c1ccc2c(-c3nc(C4=CC[C@H](C)N(CCNS(C)(=O)=O)C4)c[nH]3)n[nH]c2c1F [Example 278],10 to 31.6,,,0.1 to 1,0.1 to 1
CCc1cc(O)ccc1-c1ccc2c(-c3nc(C4=CCN(CC)C4)c[nH]3)n[nH]c2c1F [Example 283],3.16 to 10,A (A represents a pKi value ≥10 (Ki≤0.1 nM)),A (A represents a pKi value ≥10 (Ki≤0.1 nM)),,
CCc1cc(O)c(F)cc1-c1ccc2c(-c3nc(C4=CCNCC4)c[nH]3)n[nH]c2c1 [Example 284],3.16 to 10,A (A represents a pKi value ≥10 (Ki≤0.1 nM)),A (A represents a pKi value ≥10 (Ki≤0.1 nM)),,
CCc1cc(O)c(F)cc1-c1ccc2c(-c3nc(C4=CCNC4)c[nH]3)n[nH]c2c1 [Example 285],3.16 to 10,A (A represents a pKi value ≥10 (Ki≤0.1 nM)),A (A represents a pKi value ≥10 (Ki≤0.1 nM)),,
CCOC(=O)C[C@H]1C=C(c2c[nH]c(-c3n[nH]c4c(F)c(-c5ccc(O)cc5CC)ccc34)n2)CN1 [Example 286],3.16 to 10,,,0.1 to 1,0.1 to 1
CCc1cc(O)ccc1-c1ccc2c(-c3nc(C4=CCN([C@H]5CC[C@@H](O)CC5)C4)c[nH]3)n[nH]c2c1 [Example 287],3.16 to 10,A (A represents a pKi value ≥10 (Ki≤0.1 nM)),A (A represents a pKi value ≥10 (Ki≤0.1 nM)),,
CCCN1CC=C(c2c[nH]c(-c3n[nH]c4c(F)c(-c5ccc(O)cc5CC)ccc34)n2)C1 [Example 288],3.16 to 10,A (A represents a pKi value ≥10 (Ki≤0.1 nM)),A (A represents a pKi value ≥10 (Ki≤0.1 nM)),,
CCc1cc(O)ccc1-c1ccc2c(-c3nc(C4=C[C@H](CO)N(C)C4)c[nH]3)n[nH]c2c1F [Example 289],3.16 to 10,A (A represents a pKi value ≥10 (Ki≤0.1 nM)),A (A represents a pKi value ≥10 (Ki≤0.1 nM)),,
CCc1cc(O)ccc1-c1ccc2c(-c3nc(C4=CCN(CC5CC5)C4)c[nH]3)n[nH]c2c1F [Example 290],3.16 to 10,A (A represents a pKi value ≥10 (Ki≤0.1 nM)),A (A represents a pKi value ≥10 (Ki≤0.1 nM)),,
CCc1cc(O)ccc1-c1ccc2c(-c3nc(C4=C[C@@H](C)NC4)c[nH]3)n[nH]c2c1F [Example 292],3.16 to 10,,,0.1 to 1,0.1 to 1
CCc1cc(O)ccc1-c1ccc2c(-c3nc(C4=C(C(=O)OC)CNCC4)c[nH]3)n[nH]c2c1F [Example 294],3.16 to 10,,A (A represents a pKi value ≥10 (Ki≤0.1 nM)),0.1 to 1,
CCc1cc(O)ccc1-c1ccc2c(-c3nc(C4=C(C(=O)OC)CCNC4)c[nH]3)n[nH]c2c1F [Example 295],3.16 to 10,,A (A represents a pKi value ≥10 (Ki≤0.1 nM)),0.1 to 1,
CCc1cc(O)ccc1-c1ccc2c(-c3nc(C4=CCN(Cc5cn[nH]c5)C4)c[nH]3)n[nH]c2c1 [Example 296],10 to 31.6,A (A represents a pKi value ≥10 (Ki≤0.1 nM)),A (A represents a pKi value ≥10 (Ki≤0.1 nM)),,
CCc1cc(O)ccc1-c1ccc2c(-c3nc(C4=CCN(CCCO)C4)c[nH]3)n[nH]c2c1 [Example 297],10 to 31.6,,,0.1 to 1,0.1 to 1
CCOC(=O)C1=C(c2c[nH]c(-c3n[nH]c4c(F)c(-c5ccc(O)cc5CC)ccc34)n2)CNCC1 [Example 301],10 to 31.6,A (A represents a pKi value ≥10 (Ki≤0.1 nM)),,,0.1 to 1
CCOC(=O)C1=C(c2c[nH]c(-c3n[nH]c4cc(-c5ccc(O)cc5CC)ccc34)n2)CNCC1 [Example 302],10 to 31.6,A (A represents a pKi value ≥10 (Ki≤0.1 nM)),,,0.1 to 1
CCc1cc(O)ccc1-c1ccc2c(-c3nc(C4=CCN(C5CCC5)C4)c[nH]3)n[nH]c2c1F [Example 303],10 to 31.6,A (A represents a pKi value ≥10 (Ki≤0.1 nM)),A (A represents a pKi value ≥10 (Ki≤0.1 nM)),,
CCc1cc(O)ccc1-c1ccc2c(-c3nc(C4=CCN(C5CCC5)[C@H]4CO)c[nH]3)n[nH]c2c1F [Example 304],10 to 31.6,A (A represents a pKi value ≥10 (Ki≤0.1 nM)),A (A represents a pKi value ≥10 (Ki≤0.1 nM)),,
CCc1cc(O)ccc1-c1ccc2c(-c3nc(C4=CCC(C)(C)NC4)c[nH]3)n[nH]c2c1F [Example 306],10 to 31.6,,,0.1 to 1,0.1 to 1
